Measured values reported in ChEMBL document CHEMBL4312009, “Multigram scale synthesis of polycyclic lactones and evaluation of antitumor and other biological properties” (Eur J Med Chem, 2020).

Legend:
[1] = tested on: GTPase KRas (Homo sapiens), P01116 [UNDEFINED MUTATION]; assay: Inhibition of KRas mutant in human HCT116 cells assessed as cell viability by measuring ATP at 20 uM relative to control; type: cell-based
HeLa [2] = assay: Cell cycle arrest in human HeLa cells assessed as effect on 4N stage incubated for 21 hrs by propidium iodide based flow cytometry; type: functional
[3] = target: Proprotein convertase subtilisin/kexin type 9 (Homo sapiens) (UniProt Q8NBP7); assay: Inhibition of human PCSK9 at 40 uM relative to control
HeLa [4] = assay: Cell cycle arrest in human HeLa cells assessed as effect on mitotic index incubated for 21 hrs by propidium iodide based flow cytometry; type: functional
[5] = tested on: GTPase KRas (Homo sapiens), P01116 [UNDEFINED MUTATION]; assay: Inhibition of KRas mutant in human DLD1 cells assessed as cell viability by measuring ATP at 20 uM relative to control; type: cell-based
HeLa [6] = assay: Cell cycle arrest in human HeLa cells assessed as effect on S phase incubated for 21 hrs by propidium iodide based flow cytometry; type: functional
[7] = target: Microtubule-associated protein tau (Homo sapiens) (UniProt P10636); assay: Inhibition of human Tau at 40 uM relative to control
HeLa [8] = assay: Cell cycle arrest in human HeLa cells assessed as effect on G1 phase incubated for 21 hrs by propidium iodide based flow cytometry; type: functional
[9] = Activation of wnt pathway in mouse C2C12 cells assessed as increase in alkaline phosphatase activity; type: cell-based
HeLa [10] = assay: Cell cycle arrest in human HeLa cells assessed as effect on 2N stage incubated for 21 hrs by propidium iodide based flow cytometry; type: functional
[11] = target: T1, Angiopoietin-like protein 8 (Homo sapiens) (UniProt Q6UXH0); assay: Inhibition of human Angptl8 at 40 uM relative to control
T1 sequence (whole entry): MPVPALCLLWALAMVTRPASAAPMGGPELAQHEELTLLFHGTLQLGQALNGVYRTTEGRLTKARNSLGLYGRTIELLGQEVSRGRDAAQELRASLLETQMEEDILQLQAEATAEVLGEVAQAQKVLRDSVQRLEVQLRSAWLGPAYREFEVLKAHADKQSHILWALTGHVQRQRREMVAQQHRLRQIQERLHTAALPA

[12] = target: Apolipoprotein C-III (Homo sapiens) (UniProt P02656); assay: Inhibition of human APOC3 at 40 uM relative to control
[13] = Activation of wnt pathway in mouse C2C12 cells assessed as increase in beta-catenin activity; type: cell-based
HeLa [14] = assay: Cell cycle arrest in human HeLa cells incubated for 21 hrs by propidium iodide based flow cytometry; type: functional
[15] = tested on: GTPase KRas (Homo sapiens), P01116 [UNDEFINED MUTATION]; assay: Inhibition of KRas mutant in human HCT116 cells assessed as cell viability by measuring ATP; type: cell-based
[16] = tested on: GTPase KRas (Homo sapiens), P01116 [UNDEFINED MUTATION]; assay: Inhibition of KRas mutant in human HCT116 cells […] assessed as cell viability by measuring ATP at 20 uM relative to control; type: cell-based
[17] = tested on: GTPase KRas (Homo sapiens), P01116 [UNDEFINED MUTATION]; assay: Inhibition of KRas mutant in human HCT116 cells […] assessed as cell viability by measuring ATP at 2 uM relative to control; type: cell-based
[18] = tested on: GTPase KRas (Homo sapiens), P01116 [UNDEFINED MUTATION]; assay: Inhibition of KRas mutant in human SW480 cells assessed as cell viability by measuring ATP; type: cell-based
[19] = tested on: GTPase KRas (Homo sapiens), P01116 [UNDEFINED MUTATION]; assay: Inhibition of KRas mutant in human SW480 cells assessed as cell viability by measuring ATP at 20 uM relative to control; type: cell-based
[20] = tested on: GTPase KRas (Homo sapiens), P01116 [UNDEFINED MUTATION]; assay: Inhibition of KRas mutant in human DLD1 cells assessed as cell viability by measuring ATP; type: cell-based
[21] = tested on: GTPase KRas (Homo sapiens), P01116 [UNDEFINED MUTATION]; assay: Inhibition of KRas mutant in human SW480 cells assessed as cell viability by measuring ATP at 2 uM relative to control; type: cell-based
[22] = tested on: GTPase KRas (Homo sapiens), P01116 [UNDEFINED MUTATION]; assay: Inhibition of KRas mutant in human HCT116 cells […] assessed as cell viability by measuring ATP; type: cell-based
[23] = tested on: GTPase KRas (Homo sapiens), P01116 [UNDEFINED MUTATION]; assay: Inhibition of KRas mutant in human DLD1 cells assessed as cell viability by measuring ATP at 0.2 uM relative to control; type: cell-based
[24] = tested on: GTPase KRas (Homo sapiens), P01116 [UNDEFINED MUTATION]; assay: Inhibition of KRas mutant in human SW480 cells assessed as cell viability by measuring ATP at 0.2 uM relative to control; type: cell-based
[25] = tested on: GTPase KRas (Homo sapiens), P01116 [UNDEFINED MUTATION]; assay: Inhibition of KRas mutant in human HCT116 cells […] assessed as cell viability by measuring ATP at 0.2 uM relative to control; type: cell-based
[26] = target: Sodium channel protein type 9 subunit alpha (Homo sapiens) (UniProt Q15858); assay: Inhibition of human Nav1.7 at 40 uM relative to control
[27] = tested on: GTPase KRas (Homo sapiens), P01116 [UNDEFINED MUTATION]; assay: Inhibition of KRas mutant in human HCT116 cells assessed as cell viability by measuring ATP at 0.2 uM relative to control; type: cell-based
[28] = tested on: GTPase KRas (Homo sapiens), P01116 [UNDEFINED MUTATION]; assay: Inhibition of KRas mutant in human HCT116 cells assessed as cell viability by measuring ATP at 2 uM relative to control; type: cell-based
[29] = tested on: GTPase KRas (Homo sapiens), P01116 [UNDEFINED MUTATION]; assay: Inhibition of KRas mutant in human DLD1 cells assessed as cell viability by measuring ATP at 2 uM relative to control; type: cell-based
CYP1A1 = assay: Selectivity index, ratio of IC50 of cytotoxicity against CHO cells to IC50 for bioactivation in CYP1A1 (unknown origin) transfected CHO cells assessed as CYP1A1-mediated drug activation by measuring reduction in cell viability; type: cell-based; details: hamster, CHO cells and CYP1A1-transfected CHO cells; read-out: Ratio IC50
CHO = assay: Cytotoxicity against CHO cells assessed as reduction in cell viability; type: cell-based; details: Cricetulus griseus
HT-29 [30] = assay: Antiproliferative activity against human HT-29 cells assessed as reduction in cell viability incubated for 24 hrs in hypoxia condition by MTT assay; type: functional, cell-based; details: HT-29, 24 h
HT-29 [31] = assay: Selectivity index, ratio of IC50 of antiproliferative activity against human HT-29 cells in normoxia to IC50 of antiproliferative activity against human HT-29 cells in hypoxia condition; type: functional
HT-29 [32] = assay: Antiproliferative activity against human HT-29 cells assessed as reduction in cell viability incubated for 24 hrs by MTT assay; type: functional, cell-based; details: HT-29, 24 h

Microtubule-associated protein tau (Homo sapiens), sequence (P10636 whole entry): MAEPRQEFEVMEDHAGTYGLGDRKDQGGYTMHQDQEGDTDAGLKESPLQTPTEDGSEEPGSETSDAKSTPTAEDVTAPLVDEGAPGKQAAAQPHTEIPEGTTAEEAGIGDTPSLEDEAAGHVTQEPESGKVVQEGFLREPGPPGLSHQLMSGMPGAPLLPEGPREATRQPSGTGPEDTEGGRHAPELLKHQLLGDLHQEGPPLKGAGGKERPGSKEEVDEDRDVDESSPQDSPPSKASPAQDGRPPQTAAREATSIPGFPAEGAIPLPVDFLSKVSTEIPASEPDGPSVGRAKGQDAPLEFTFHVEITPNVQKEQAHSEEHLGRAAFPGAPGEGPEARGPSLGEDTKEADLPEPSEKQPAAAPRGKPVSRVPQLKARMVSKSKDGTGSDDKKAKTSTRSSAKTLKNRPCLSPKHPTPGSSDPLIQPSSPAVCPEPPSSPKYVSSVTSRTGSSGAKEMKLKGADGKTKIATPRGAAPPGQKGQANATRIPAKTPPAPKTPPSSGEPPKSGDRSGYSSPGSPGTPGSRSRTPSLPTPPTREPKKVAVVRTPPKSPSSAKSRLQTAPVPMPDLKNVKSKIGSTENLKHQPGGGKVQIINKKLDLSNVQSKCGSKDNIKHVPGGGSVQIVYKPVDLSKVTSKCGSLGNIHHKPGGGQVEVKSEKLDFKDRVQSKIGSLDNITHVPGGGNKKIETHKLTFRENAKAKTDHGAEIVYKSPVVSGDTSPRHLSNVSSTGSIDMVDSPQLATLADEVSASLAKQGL
GTPase KRas (Homo sapiens), P01116 [UNDEFINED MUTATION], sequence (P01116 whole entry, looked up, change not shown): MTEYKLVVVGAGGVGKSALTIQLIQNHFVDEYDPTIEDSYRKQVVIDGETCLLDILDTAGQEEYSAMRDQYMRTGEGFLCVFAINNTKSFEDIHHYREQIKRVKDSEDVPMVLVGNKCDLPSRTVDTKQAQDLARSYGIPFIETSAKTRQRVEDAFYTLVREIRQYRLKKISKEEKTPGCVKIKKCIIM
Sodium channel protein type 9 subunit alpha (Homo sapiens), sequence (Q15858 whole entry, looked up): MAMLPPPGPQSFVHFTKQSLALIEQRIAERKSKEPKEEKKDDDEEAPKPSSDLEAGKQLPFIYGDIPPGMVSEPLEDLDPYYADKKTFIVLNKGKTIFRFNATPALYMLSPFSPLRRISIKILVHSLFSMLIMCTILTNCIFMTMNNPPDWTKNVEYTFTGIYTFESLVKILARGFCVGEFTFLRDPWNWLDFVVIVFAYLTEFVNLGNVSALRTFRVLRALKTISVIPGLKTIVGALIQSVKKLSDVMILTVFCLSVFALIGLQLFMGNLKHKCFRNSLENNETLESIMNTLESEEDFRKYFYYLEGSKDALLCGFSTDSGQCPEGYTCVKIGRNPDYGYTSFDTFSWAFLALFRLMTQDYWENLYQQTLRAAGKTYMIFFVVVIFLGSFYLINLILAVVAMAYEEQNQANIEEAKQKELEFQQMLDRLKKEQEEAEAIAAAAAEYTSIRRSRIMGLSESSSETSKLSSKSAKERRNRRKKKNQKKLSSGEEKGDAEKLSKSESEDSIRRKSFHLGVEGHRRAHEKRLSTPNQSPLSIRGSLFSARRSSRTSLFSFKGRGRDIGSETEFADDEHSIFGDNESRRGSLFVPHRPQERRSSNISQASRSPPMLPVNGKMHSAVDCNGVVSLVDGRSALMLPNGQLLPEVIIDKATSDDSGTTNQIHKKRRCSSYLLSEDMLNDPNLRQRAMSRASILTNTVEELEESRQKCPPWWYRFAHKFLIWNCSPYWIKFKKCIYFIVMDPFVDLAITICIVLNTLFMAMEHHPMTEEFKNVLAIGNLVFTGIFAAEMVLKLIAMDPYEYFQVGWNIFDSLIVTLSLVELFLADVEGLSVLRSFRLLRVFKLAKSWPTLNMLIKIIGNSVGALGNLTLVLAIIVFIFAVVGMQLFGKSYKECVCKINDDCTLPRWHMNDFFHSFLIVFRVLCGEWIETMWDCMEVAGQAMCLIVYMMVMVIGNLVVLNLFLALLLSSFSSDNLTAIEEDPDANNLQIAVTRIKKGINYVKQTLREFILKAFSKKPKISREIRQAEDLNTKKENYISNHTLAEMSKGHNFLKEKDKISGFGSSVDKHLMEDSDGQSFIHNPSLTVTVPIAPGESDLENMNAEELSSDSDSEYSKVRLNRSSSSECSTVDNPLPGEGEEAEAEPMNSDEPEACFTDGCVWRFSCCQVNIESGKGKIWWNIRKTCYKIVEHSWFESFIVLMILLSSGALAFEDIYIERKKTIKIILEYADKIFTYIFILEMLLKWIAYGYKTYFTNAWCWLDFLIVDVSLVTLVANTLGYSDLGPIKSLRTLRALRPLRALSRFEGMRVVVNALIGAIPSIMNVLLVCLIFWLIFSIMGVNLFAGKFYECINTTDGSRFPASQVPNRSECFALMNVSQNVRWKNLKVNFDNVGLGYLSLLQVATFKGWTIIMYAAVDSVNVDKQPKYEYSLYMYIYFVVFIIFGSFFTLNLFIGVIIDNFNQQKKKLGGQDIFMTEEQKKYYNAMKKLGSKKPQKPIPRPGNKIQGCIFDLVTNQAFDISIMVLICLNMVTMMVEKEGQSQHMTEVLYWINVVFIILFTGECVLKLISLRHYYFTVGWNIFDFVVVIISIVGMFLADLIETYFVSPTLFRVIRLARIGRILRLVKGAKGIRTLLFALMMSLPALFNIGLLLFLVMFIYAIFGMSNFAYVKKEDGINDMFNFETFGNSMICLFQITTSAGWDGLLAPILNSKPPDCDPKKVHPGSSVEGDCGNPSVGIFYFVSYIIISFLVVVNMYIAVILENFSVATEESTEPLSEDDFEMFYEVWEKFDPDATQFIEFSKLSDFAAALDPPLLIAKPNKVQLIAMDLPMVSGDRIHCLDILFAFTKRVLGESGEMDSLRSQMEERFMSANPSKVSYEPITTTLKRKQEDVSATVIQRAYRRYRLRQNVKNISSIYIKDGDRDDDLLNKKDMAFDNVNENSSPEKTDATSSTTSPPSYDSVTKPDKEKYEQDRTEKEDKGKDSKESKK
Proprotein convertase subtilisin/kexin type 9 (Homo sapiens), sequence (Q8NBP7 31-152 limits assumed): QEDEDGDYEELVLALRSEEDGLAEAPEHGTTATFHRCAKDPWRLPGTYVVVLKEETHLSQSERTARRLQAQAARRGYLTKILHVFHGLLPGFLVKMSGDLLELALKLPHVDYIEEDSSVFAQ
Proprotein convertase subtilisin/kexin type 9 (Homo sapiens), sequence (Q8NBP7 153-692 limits assumed): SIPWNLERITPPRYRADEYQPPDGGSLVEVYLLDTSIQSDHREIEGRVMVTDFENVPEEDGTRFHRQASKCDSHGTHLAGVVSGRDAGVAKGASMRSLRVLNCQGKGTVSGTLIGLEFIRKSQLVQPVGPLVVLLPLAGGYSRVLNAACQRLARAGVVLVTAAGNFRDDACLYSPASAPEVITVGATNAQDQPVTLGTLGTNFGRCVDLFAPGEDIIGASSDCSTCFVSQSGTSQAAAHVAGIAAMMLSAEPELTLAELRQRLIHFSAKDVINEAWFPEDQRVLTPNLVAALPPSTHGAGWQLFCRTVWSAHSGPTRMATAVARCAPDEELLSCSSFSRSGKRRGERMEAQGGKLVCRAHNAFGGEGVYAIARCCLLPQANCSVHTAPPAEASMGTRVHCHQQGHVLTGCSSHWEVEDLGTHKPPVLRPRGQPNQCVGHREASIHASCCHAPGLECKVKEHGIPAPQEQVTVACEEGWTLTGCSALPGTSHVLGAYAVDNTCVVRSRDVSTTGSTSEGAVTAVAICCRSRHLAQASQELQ
Apolipoprotein C-III (Homo sapiens), sequence (P02656 whole entry): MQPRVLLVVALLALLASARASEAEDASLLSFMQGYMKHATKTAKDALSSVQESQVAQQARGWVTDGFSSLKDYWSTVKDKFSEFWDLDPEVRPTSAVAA

Structure (SMILES) | inhibition [1] | EC50 (HeLa [2]) | inhibition [3] | EC50 (HeLa [4]) | inhibition [5] | IC50 (HeLa [6]) | inhibition [7] | EC50 (HeLa [8]) | inhibition [11] | inhibition [12] | inhibition [16] | inhibition [17] | inhibition [19] | inhibition [21] | inhibition [23] | inhibition [24] | inhibition [25] | inhibition [27] | inhibition [28] | inhibition [29] | other results
CCCCCc1c2c(c(C)c3c1Oc1cc(OC)ccc1O3)C(=O)OC2 | 26% | > 10 µM | -7% | > 10 µM | -3.9% | > 10 µM | 23% | > 10 µM | 34% | 12% | – | – | – | – | – | – | – | – | – | – | EC50 [9]: > 10 µM; IC50 (HeLa [10]): > 10 µM; EC50 [13]: > 10 µM
CCCCCc1c2c(c(C)c3c1C(=O)OC3)Oc1ccccc1O2 | 89% | 1.6 µM | 69% | 1.4 µM | 120% | > 10 µM | 88% | > 10 µM | 89% | 78% | 66% | 59% | 86% | 64% | 60% | 20% | 5% | 20% | 62% | 63% | IC50 (HeLa [14]): 1 µM; inhibition [15]: Dose-dependent effect; inhibition [18]: Dose-dependent effect; inhibition [20]: Dose-dependent effect; inhibition [22]: Dose-dependent effect; EC50 [9]: 6.3 µM; inhibition [26]: 74%; IC50 (HeLa [10]): 1.8 µM
CCCCCc1c2c(c(C)c3c1Oc1ccccc1O3)C(=O)OC2 | 35% | – | – | – | 40% | – | – | – | – | – | 31% | 28% | 40% | 21% | – | 11% | 44% | -9% | 12% | 17% | –
Cc1c2ccncc2c(C)c2c1[nH]c1ccccc12 [ELLIPTECINE] | – | – | – | – | – | – | – | – | – | – | – | – | – | – | – | – | – | – | – | – | selectivity ratio (CYP1A1): 15.6; IC50 (CHO): 0.02 µM
CCCCc1c2c(c(C)c3c1Oc1ccccc1O3)C(=O)OC2 | 38% | – | 15% | – | 41% | – | 8% | – | 15% | 34% | 2% | 0.4% | 14% | 14% | – | 12% | – | 39% | 7% | 6% | –
CCCCCCc1c2c(c(C)c3c1C(=O)OC3)Oc1ccccc1O2 | 91% | 2 µM | 75% | > 10 µM | 112% | > 10 µM | 77% | > 10 µM | 86% | 75% | 62% | 69% | 86% | 58% | 14% | 21% | 52% | 12% | 60% | 50% | IC50 (HeLa [14]): 1.8 µM; inhibition [15]: Dose-dependent effect; IC50 (HT-29 [30]): 8.93 µM; inhibition [18]: Dose-dependent effect; inhibition [20]: Dose-dependent effect; inhibition [22]: Dose-dependent effect; Ratio IC50 (HT-29 [31]): 0.15; IC50 (HT-29 [32]): 1.33 µM; selectivity ratio (CYP1A1): 0.6; EC50 [9]: 7.6 µM; IC50 (HeLa [10]): 2.1 µM; IC50 (CHO): 1.52 µM; EC50 [13]: > 20 µM
CCCCCCc1c2c(c(C)c3c1C(=O)SC3)Oc1ccccc1O2 | 40% | > 10 µM | 30% | > 10 µM | 90% | > 10 µM | 20% | > 10 µM | 31% | 21% | 18% | -4% | 22% | 9% | -9% | 13% | – | – | 10% | 7% | IC50 (HeLa [14]): > 10 µM; EC50 [9]: > 10 µM; inhibition [26]: -10%; IC50 (HeLa [10]): > 10 µM; EC50 [13]: > 10 µM
CCc1c2c(nc3ccc(OC(=O)N4CCC(N5CCCCC5)CC4)cc13)-c1cc3c(c(=O)n1C2)COC(=O)[C@]3(O)CC [IRINOTECAN] | – | – | – | – | – | – | – | – | – | – | – | – | – | – | – | – | – | – | – | – | IC50 (HT-29 [30]): 3.55 µM; Ratio IC50 (HT-29 [31]): 1.12; IC50 (HT-29 [32]): 3.96 µM
CCCCCCc1c2c(c(C)c3c1Oc1ccccc1O3)C(=O)OC2 | 15% | – | -7% | – | – | – | 11% | – | 24% | 17% | 2% | 10% | 12% | 18% | 29% | 16% | 26% | -3% | 7% | 49% | inhibition [26]: -9%
CCCCCCc1c2c(c(C)c3c1Oc1ccccc1O3)C(=O)SC2 | 13% | – | -4% | – | 14% | – | 30% | – | 27% | 7% | 3.4% | -5.6% | 21% | 10% | -10% | 10% | – | -10% | 2.9% | 6% | inhibition [26]: -2%
Cc1c2c(c(CCCCBr)c3c1C(=O)OC3)Oc1ccccc1O2 | 108% | – | 40% | – | 20% | – | 35% | – | 37% | 17% | 28% | 20% | 55% | 4.4% | 0.4% | – | 12% | 2% | 9.5% | 0.4% | –
Cc1c2c(c(CCCCBr)c3c1Oc1ccccc1O3)C(=O)OC2 | 76% | 1.4 µM | 35% | 1.3 µM | 76% | > 10 µM | 56% | > 10 µM | 67% | 67% | 53% | 58% | 63% | 62% | 30% | 7% | 15% | 33% | 56% | 45% | IC50 (HeLa [14]): 0.6 µM; inhibition [15]: Dose-dependent effect; inhibition [18]: Dose-dependent effect; inhibition [20]: Dose-dependent effect; inhibition [22]: Dose-dependent effect; EC50 [9]: 8.2 µM; inhibition [26]: 0%; IC50 (HeLa [10]): 1.5 µM; EC50 [13]: > 20 µM
CCCCCc1c2c(c(C)c3c1C(=O)OC3)Oc1ccc(OC)cc1O2 | 40% | > 10 µM | 42% | > 10 µM | 73% | > 10 µM | 60% | > 10 µM | 59% | 38% | 6% | 8% | 19% | 16% | – | 15% | 52% | – | 7.9% | 16% | EC50 [9]: > 10 µM; inhibition [26]: 22%; IC50 (HeLa [10]): > 10 µM; EC50 [13]: > 10 µM
